Measurements taken from patent US20240158392A1 (Janssen Biotech, Inc., priority 2021, published 2024).
pIC50: −log10 of the molar value.

Columns and labels:
[1] = molecular target: T1, SIK2 (Homo sapiens, UniProt Q9H0K1); assay: SIK2 Enzymatic Assay Version 1 (ADP Glo); type: biochemical; settings: for IC50: enzyme 0.6 nM, 160 μM ATP and 140 μM HDAC5tide (each 2× final concentration), 30 minutes pre-incubation, 4 hours, ADPGlo luminescence, read-out: SIK2 ADP Glo IC50 (μM) (Test Example 1)
In short: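 Room-temperature ADP-Glo luminescence assay; SIK2 added at 0.6 nM (2× final) and preincubated with compound for 30 min. Reaction stopped with ADP-Glo Reagent for 40 min, then detection reagent for at least 30 min; no-peptide (ATP-only) wells served as negative control.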

[2] = molecular target: T1, SIK2; assay: SIK2 Enzymatic Assay High Version 2 (High ATP); type: biochemical
In short: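 At room temperature, enzyme (6 nM, 2× final) was preincubated with compound for 30 min, then 6 mM ATP and 400 μM HDAC5tide (both 2× final) were added for 2 h. ADP formed was measured by ADP-Glo Max (2 h reagent, 1 h detection) using luminescence.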

T1 sequence (Q9H0K1 whole entry, species assumed): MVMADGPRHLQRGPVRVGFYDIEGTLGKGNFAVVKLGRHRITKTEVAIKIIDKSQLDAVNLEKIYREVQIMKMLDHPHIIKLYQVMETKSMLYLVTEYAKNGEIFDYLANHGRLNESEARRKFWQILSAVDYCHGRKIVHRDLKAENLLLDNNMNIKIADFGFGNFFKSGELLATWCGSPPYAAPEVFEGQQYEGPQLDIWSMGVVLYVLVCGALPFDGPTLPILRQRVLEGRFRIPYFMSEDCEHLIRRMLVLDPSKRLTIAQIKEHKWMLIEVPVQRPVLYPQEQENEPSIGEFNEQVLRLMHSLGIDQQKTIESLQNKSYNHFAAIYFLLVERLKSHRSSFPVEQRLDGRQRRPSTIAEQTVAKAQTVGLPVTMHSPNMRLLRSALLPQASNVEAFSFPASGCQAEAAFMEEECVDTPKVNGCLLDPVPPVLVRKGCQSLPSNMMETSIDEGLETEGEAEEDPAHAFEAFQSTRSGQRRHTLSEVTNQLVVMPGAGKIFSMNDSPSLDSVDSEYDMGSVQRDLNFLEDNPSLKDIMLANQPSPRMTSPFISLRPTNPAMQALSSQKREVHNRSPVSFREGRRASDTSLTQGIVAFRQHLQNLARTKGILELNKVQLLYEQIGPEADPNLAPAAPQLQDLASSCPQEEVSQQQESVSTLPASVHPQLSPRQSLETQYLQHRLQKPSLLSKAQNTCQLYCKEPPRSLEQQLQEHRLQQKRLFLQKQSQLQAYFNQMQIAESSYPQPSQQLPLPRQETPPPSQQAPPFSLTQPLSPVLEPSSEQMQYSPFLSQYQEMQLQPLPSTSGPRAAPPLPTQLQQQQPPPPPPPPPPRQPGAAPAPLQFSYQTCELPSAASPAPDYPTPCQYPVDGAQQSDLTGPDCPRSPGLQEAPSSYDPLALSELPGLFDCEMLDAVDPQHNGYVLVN

## N#Cc1cc(-c2ccn3nc(NC(=O)C4CC4)cc3c2)c(OC[C@@H]2CCN(CC(F)(F)F)C2)cn1 [Example 588, N-[5-[2-cyano-5-[[(3R)-1-(2,2,2-trifluoroethyl)pyrrolidin-3-yl]methoxy]-4-pyridyl]pyrazolo[1,5-a]pyridin-2-yl]cyclopropanecarboxamide]
[1]
  IC50: 0.00342 µM
[2]
  pIC50: 7.23

## N#Cc1cc(-c2ccn3nc(NC(=O)C4CC4)cc3c2)c(OC[C@@H]2C[C@H]3CC[C@@H](C2)N3)cn1 [Example 67, N-[5-[5-[[(1S,5R)-8-azabicyclo[3.2.1]octan-3-yl]methoxy]-2-cyano-4-pyridyl]pyrazolo[1,5-a]pyridin-2-yl]cyclopropanecarboxamide]
[1]
  IC50: 0.000631 µM
[2]
  pIC50: 8.06

## Cc1cc(-c2ccn3nc(NC(=O)C4CC4)cc3c2)c(OC[C@@H]2CCN(C)C2)cn1 [Example 509, N-[5-[2-methyl-5-[[(3R)-1-methylpyrrolidin-3-yl]methoxy]-4-pyridyl]pyrazolo[1,5-a]pyridin-2-yl]cyclopropanecarboxamide]
[1]
  IC50: 0.00321 µM
[2]
  pIC50: 7.25

## N#Cc1cc(-c2ccn3nc(NC(=O)C4CC4)cc3c2)c(OCC2CNC2)cn1 [Example 23, N-[5-[5-(azetidin-3-ylmethoxy)-2-cyano-4-pyridyl]pyrazolo[1,5-a]pyridin-2-yl]cyclopropanecarboxamide]
[1]
  IC50: 0.0021 µM
[2]
  pIC50: 7.79

## CN1CCC[C@H](COc2cnc(C#N)cc2-c2ccn3nc(NC(=O)C4CC4)cc3c2)C1 [Example 38, (S)—N-(5-(2-cyano-5-((1-methylpiperidin-3-yl)methoxy)pyridin-4-yl)pyrazolo[1,5-a]pyridin-2-yl)cyclopropanecarboxamide]
[1]
  IC50: 0.014 µM
[2]
  pIC50: 6.52

## N#Cc1cc(-c2ccn3nc(NC(=O)C4CC4)cc3c2)c(O[C@@H]2CCN[C@H](C(F)(F)F)C2)cn1 (single isomer, unassigned) [Example 8, N-(5-(2-cyano-5-(((2*S,4*R)-2-(trifluoromethyl)piperidin-4-yl)oxy)pyridin-4-yl)pyrazolo[1,5-a]pyridin-2-yl)cyclopropanecarboxamide]
[1]
  IC50: 0.000373 µM
[2]
  pIC50: 8.12

## N#Cc1cc(-c2ccn3nc(NC(=O)C4CC4)cc3c2)c(OC[C@@H]2CNCCO2)cn1 [Example 19, N-[5-[2-cyano-5-[[(2S)-morpholin-2-yl]methoxy]-4-pyridyl]pyrazolo[1,5-a]pyridin-2-yl]cyclopropanecarboxamide]
[1]
  IC50: 0.000783 µM
[2]
  pIC50: 8.08

## Cc1cc(-c2ccn3nc(NC(=O)C4CC4)cc3c2)c(OCC2(N)CCC2)cn1 [Example 154, N-[5-[5-[(1-aminocyclobutyl)methoxy]-2-methyl-4-pyridyl]pyrazolo[1,5-a]pyridin-2-yl]cyclopropanecarboxamide]
[1]
  IC50: 0.00116 µM
[2]
  pIC50: 7.62

## CN1CCO[C@@H](COc2cnc(C#N)cc2-c2ccn3nc(NC(=O)C4CC4)cc3c2)C1 [Example 36, (R)—N-(5-(2-cyano-5-((4-methylmorpholin-2-yl)methoxy)pyridin-4-yl)pyrazolo[1,5-a]pyridin-2-yl)cyclopropanecarboxamide]
[1]
  IC50: 0.00321 µM
[2]
  pIC50: 7.70

## CN1CC[C@@H](COc2cnc(Cl)cc2-c2ccn3nc(NC(=O)C4CC4)cc3c2)C1 [Example 490, N-[5-[2-chloro-5-[[(3R)-1-methylpyrrolidin-3-yl]methoxy]-4-pyridyl]pyrazolo[1,5-a]pyridin-2-yl]cyclopropanecarboxamide]
[1]
  IC50: 0.0013 µM
[2]
  pIC50: 7.75

## N#Cc1cc(-c2ccn3nc(NC(=O)C4CC4)cc3c2)c(O[C@H]2CC[C@H](O)CC2)cn1 [Example 64, N-[5-[2-cyano-5-(4-hydroxycyclohexoxy)-4-pyridyl]pyrazolo[1,5-a]pyridin-2-yl]cyclopropanecarboxamide]
[1]
  IC50: 0.000387 µM
[2]
  pIC50: 8.06

## N#Cc1cc(-c2ccn3nc(NC(=O)C4CC4)cc3c2)c(OC2CN(CC(F)(F)F)C2)cn1 [Example 590, N-[5-[2-cyano-5-[1-(2,2,2-trifluoroethyl)azetidin-3-yl]oxy-4-pyridyl]pyrazolo[1,5-a]pyridin-2-yl]cyclopropanecarboxamide]
[1]
  IC50: 0.00124 µM
[2]
  pIC50: 7.71

## N#Cc1cc(-c2ccn3nc(NC(=O)C4CC4)cc3c2)c(O[C@H]2CCN(CC(F)(F)F)C2)cn1 [Example 5, N-[5-[2-cyano-5-[(3S)-1-(2,2,2-trifluoroethyl)pyrrolidin-3-yl]oxy-4-pyridyl]pyrazolo[1,5-a]pyridin-2-yl]cyclopropanecarboxamide]
[1]
  IC50: 0.000381 µM
[2]
  pIC50: 8.11

## CC(C)(O)COc1cnc(C#N)cc1-c1ccn2nc(NC(=O)C3CC3)cc2c1 [Example 52, N-[5-[2-Cyano-5-(2-hydroxy-2-methyl-propoxy)-4-pyridyl]pyrazolo[1,5-a]pyridin-2-yl]cyclopropanecarboxamide]
[1]
  IC50: 0.00206 µM
[2]
  pIC50: 7.50

## C[C@](O)(COc1cnc(C#N)cc1-c1ccn2nc(NC(=O)C3CC3)cc2c1)C(F)(F)F (single isomer, unassigned) [Example 50, (*S)—N-(5-(2-Cyano-5-(3,3,3-trifluoro-2-hydroxy-2-methylpropoxy)pyridin-4-yl)pyrazolo[1,5-a]pyridin-2-yl)cyclopropanecarboxamide]
[1]
  IC50: 0.00111 µM
[2]
  pIC50: 7.66

## Cc1cc(-c2ccn3nc(NC(=O)C4CC4)cc3c2)c(OC[C@@H]2CN[C@H](C)CO2)cn1 [Example 168, N-[5-[2-methyl-5-[[(2S,5R)-5-methylmorpholin-2-yl]methoxy]-4-pyridyl]pyrazolo[1,5-a]pyridin-2-yl]cyclopropanecarboxamide]
[1]
  IC50: 0.000382 µM
[2]
  pIC50: 8.33

## N#Cc1cc(-c2ccn3nc(NC(=O)C4CC4)cc3c2)c(OCC2(O)CCCC2)cn1 [Example 42, N-[5-[2-cyano-5-[(1-hydroxycyclopentyl)methoxy]-4-pyridyl]pyrazolo[1,5-a]pyridin-2-yl]cyclopropanecarboxamide]
[1]
  IC50: 0.00169 µM
[2]
  pIC50: 7.34

## N#Cc1cc(-c2ccn3nc(NC(=O)C4CC4)cc3c2)c(OCc2ccccc2)cn1 [Example 753, N-[5-(5-benzyloxy-2-cyano-4-pyridyl)pyrazolo[1,5-a]pyridin-2-yl]cyclopropanecarboxamide]
[1]
  pIC50: 8.53
[2]
  pIC50: 6.32

## N#Cc1cc(-c2ccn3nc(NC(=O)C4CC4)cc3c2)c(OCC2CCNCC2)cn1 [Example 43, N-[5-[2-cyano-5-(4-piperidylmethoxy)-4-pyridyl]pyrazolo[1,5-a]pyridin-2-yl]cyclopropanecarboxamide]
[1]
  IC50: 0.000938 µM
[2]
  pIC50: 7.97

## CN1CC(COc2cnc(C#N)cc2-c2ccn3nc(NC(=O)C4CC4)cc3c2)C1 [Example 32, N-[5-[2-cyano-5-[(1-methylazetidin-3-yl)methoxy]-4-pyridyl]pyrazolo[1,5-a]pyridin-2-yl]cyclopropanecarboxamide]
[1]
  IC50: 0.0034 µM
[2]
  pIC50: 7.09

## C[C@@H](Oc1ccc(C#N)cc1-c1ccn2nc(NC(=O)C3CC3)cc2c1)[C@@H]1CNCCO1 (single isomer, unassigned) [Example 477, (2*R, 1*S)—N-[5-[5-cyano-2-(1-morpholin-2-ylethoxy)phenyl]pyrazolo[1,5-a]pyridin-2-yl]cyclopropanecarboxamide]
[1]
  IC50: 0.00442 µM
[2]
  pIC50: 7.30

## Cc1cc(-c2ccn3nc(NC(=O)C4CC4)cc3c2)c(O[C@@H]2CC[C@@H](N)C2)cn1 [Example 153, N-[5-[5-[(1R,3R)-3-aminocyclopentoxy]-2-methyl-4-pyridyl]pyrazolo[1,5-a]pyridin-2-yl]cyclopropanecarboxamide]
[1]
  IC50: 0.000688 µM
[2]
  pIC50: 7.86

## CN1CCC(Oc2cnc(C#N)cc2-c2ccn3nc(NC(=O)C4CC4)cc3c2)C1 (single isomer, unassigned) [Example 59, (*S)—N-(5-(2-cyano-5-((1-methylpyrrolidin-3-yl)oxy)pyridin-4-yl)pyrazolo[1,5-a]pyridin-2-yl)cyclopropanecarboxamide]
[1]
  IC50: 0.0047 µM
[2]
  pIC50: 6.96

## N#Cc1cc(-c2ccn3nc(NC(=O)C4CC4)cc3c2)c(O[C@@H]2C[C@@H]3C[C@H]2CN3)cn1 (single isomer, unassigned) [Example 17, N-[5-[5-[[(1*S,4*S,5*R)-2-azabicyclo[2.2.1]heptan-5-yl]oxy]-2-cyano-4-pyridyl]pyrazolo[1,5-a]pyridin-2-yl]cyclopropanecarboxamide]
[1]
  IC50: 0.000402 µM
[2]
  pIC50: 8.38

## Cc1cc(-c2ccn3nc(Nc4ccn(C)n4)cc3c2)c(OC[C@@H]2CNCCO2)cn1 [Example 129, 5-[2-methyl-5-[[(2S)-morpholin-2-yl]methoxy]-4-pyridyl]-N-(1-methylpyrazol-3-yl)pyrazolo[1,5-a]pyridin-2-amine]
[1]
  IC50: 0.000657 µM
[2]
  pIC50: 8.08

## N#CCN[C@H]1C[C@@H](COc2cnc(C#N)cc2-c2ccn3nc(NC(=O)C4CC4)cc3c2)C1 [Example 596, N-[5-[2-cyano-5-[[3-(cyanomethylamino)cyclobutyl]methoxy]-4-pyridyl]pyrazolo[1,5-a]pyridin-2-yl]cyclopropanecarboxamide]
[1]
  IC50: 0.00125 µM
[2]
  pIC50: 7.84

## Cc1cc(-c2ccn3nc(NC(=O)C4CC4)cc3c2)c(OC2CN(C)C2)cn1 [Example 115, N-(5-(2-methyl-5-((1-methylazetidin-3-yl)oxy)pyridin-4-yl)pyrazolo[1,5-a]pyridin-2-yl)cyclopropanecarboxamide]
[1]
  IC50: 0.0095 µM
[2]
  pIC50: 6.80

## N#Cc1cc(-c2ccn3nc(NC(=O)C4CC4)cc3c2)c(OC2CC3(CNC3)C2)cn1 [Example 587, N-[5-[5-(6-azaspiro[3.3]heptan-2-yloxy)-2-cyano-4-pyridyl]pyrazolo[1,5-a]pyridin-2-yl]cyclopropanecarboxamide]
[1]
  IC50: 0.00381 µM
[2]
  pIC50: 7.06
